Measured values published in US8546440B2, “Substituted bicyclic imidazole derivatives as gamma secretase modulators” (Janssen Pharmaceuticals, Inc., priority 2008, dated 2013).

Key:
Assay type in all cases: cell-based
Aβtotal [1] = experiment: Screening for γ-secretase-modulating activity, Method 2: Aβtotal Alphalisa in supernatant of SKNBE2 cells carrying APP 695 wild type (Table 12c); details: Method 2, Table 12c, incubated overnight
Procedure: (§1) Screening was carried out using SKNBE2 cells carrying the APP 695—wild type, grown in Dulbecco's Modified Eagle's Medium/Nutrient mixture F-12 (DMEM/NUT-mix F-12) (HAM) provided by Invitrogen (cat no. 10371-029) containing 5% Serum/Fe supplemented with 1% non-essential amino acids, 1-glutamine 2 mM, Hepes 15 mM, penicillin 50 U/ml (units/ml) en streptomycin 50 μg/ml. Cells were grown to near confluency.
(§2) The screening was performed using a modification of the assay as described in Citron et al (1997) Nature Medicine 3: 67. Briefly, cells were plated in a 384-well plate at 10^4 cells/well in Ultraculture (Lonza, BE12-725F) supplemented with 1% glutamine (Invitrogen, 25030-024), 1% non-essential amino acid (NEAA), penicillin 50 U/ml en streptomycin 50 μg/ml in the presence of test compound at different test concentrations. The cell/compound mixture was incubated overnight at 37° C., 5% CO2, The next day the media were assayed by two sandwich immuno-assays, for Aβ42 and Aβtotal.
(§3) Aβtotal and Aβ42 concentrations were quantified in the cell supernatant using the Aphalisa technology (Perkin Elmer). Alphalisa is a sandwich assay using biotinylated antibody attached to streptavidin coated donorbeads and antibody conjugated to acceptor beads. In the presence of antigen, the beads come into close proximity. The excitation of the donor beads provokes the release of singlet oxygen molecules that trigger a cascade of energy transfer in the acceptor beads, resulting in light emission. To quantify the amount of Aβ42 in the cell supernatant, monoclonal antibody specific to the C-terminus of Aβ42 (JRF/cAβ42/26) was coupled to the receptor beads and biotinylated antibody specific to the N-terminus of Aβ (JRF/AβN/25) was used to react with the donor beads. To quantify the amount of Aβtotal in the cell supernatant, monoclonal antibody specific to the N-terminus of Aβ (JRF/AβN/25) was coupled to the receptor beads and biotinylated antibody specific to the mid region of Aβ (biotinylated 4G8) was used to react with the donor beads.
(§4) To obtain the values reported in Table 12c, the data are calculated as percentage of the maximum amount of amyloid Beta 42 measured in the absence of the test compound. The sigmoidal dose response curves were analyzed using non-linear regression analysis with percentage of the control plotted against the log concentration of the compound. A 4-parameter equation was used to determine the IC50.

Aβ42 [2] = experiment: Screening for γ-secretase-modulating activity, Method 2: Aβ42 Alphalisa in supernatant of SKNBE2 cells carrying APP 695 wild type (Table 12c); details: Method 2, Table 12c, incubated overnight
Procedure: as §1, §2, §3, §4

Aβtotal [3] = experiment: Screening for γ-secretase-modulating activity, Method 1: Aβtotal sandwich ELISA in supernatant of SKNBE2 cells carrying APP 695 wild type (Tables 12a, 12b); details: Table 12b, Method 1, SKNBE2 cells carrying APP 695 wild type, cell supernatant ELISA, averaged IC50 values
Procedure: as §1, with “Gibco” for “Invitrogen”, “31330-38)” for “10371-029)”, “acids.” for “acids, 1-glutamine 2 mM, Hepes 15 mM, penicillin 50 U/ml (units/ml) en streptomycin 50 μg/ml.”
(§5) The screening was performed using the assay as described in Citron et al (1997) Nature Medicine 3: 67. Briefly, cells were plated in a 96-well plate at about 10^5 cells/ml one day prior to addition of compounds. Compounds were added to the cells in Ultraculture (Lonza, BE12-725F) supplemented with 1% glutamine (Invitrogen, 25030-024) for 18 hours. The media were assayed by two sandwich ELISAs, for Aβ42 and Aβtotal. Toxicity of the compounds was assayed by WST-1 cell proliferation reagent (Roche, 1 644 807) according to the manufacturer's protocol.
To quantify the amount of Aβtotal in the cell supernatant, samples and standards were added to a 6E10-coated plate. The plate was allowed to incubate overnight at 4° C. in order to allow formation of the antibody-amyloid complex. Following this incubation and subsequent wash steps a selective anti-Aβ-antibody conjugate (biotinylated 4G8) was added and incubated for a minimum of 1 hour in order to allow formation of the antibody-Amyloid-antibody-complex. After incubation and appropriate wash steps, a Streptavidine-Peroxidase-Conjugate was added, followed 30 minutes later by an addition of Quanta Blu fluorogenic peroxidase substrate according to the manufacturer's instructions (Pierce Corp., Rockford, Ill.).
(§6) To obtain the values reported in Table 12a, the sigmoidal dose response curves were analysed by computerised curve-fitting, with percent of inhibition plotted against compound concentration. A 4-parameter equation (model 205) in XLfit was used to determine the IC50. The top and the bottom of the curve were fixed to 100 and 0, respectively, and the hill slope was fixed to 1. The IC50 represents the concentration of a compound that is required for inhibiting a biological effect by 50% (Here, it is the concentration where Aβ peptide level is reduced by 50%).
as §4, with “12b,” for “12c,”, “IC50. The values reported in Table 12b are averaged IC50 values.” for “IC50.”

Aβ42 [4] = experiment: Screening for γ-secretase-modulating activity, Method 1: Aβ42 sandwich ELISA in supernatant of SKNBE2 cells carrying APP 695 wild type (Tables 12a, 12b); details: Table 12b, Method 1, SKNBE2 cells carrying APP 695 wild type, cell supernatant ELISA, averaged IC50 values, percentage of control vs log concentration
Procedure: as §1, with “Gibco” for “Invitrogen”, “31330-38)” for “10371-029)”, “acids.” for “acids, 1-glutamine 2 mM, Hepes 15 mM, penicillin 50 U/ml (units/ml) en streptomycin 50 μg/ml.”
as §5
To quantify the amount of Aβ42 in the cell supernatant, commercially available Enzyme-Linked-Immunosorbent-Assay (ELISA) kits were used (Innotest® β-Amyloid(1-42), Innogenetics N.V., Ghent, Belgium). The Aβ42 ELISA was performed essentially according to the manufacturer's protocol. Briefly, the standards (dilutions of synthetic Aβ1-42) were prepared in polypropylene Eppendorf with final concentrations of 8000 down to 3.9 pg/ml (1/2 dilution step). Samples, standards and blanks (100 μl) were added to the anti-Aβ42-coated plate supplied with the kit (the capture antibody selectively recognizes the C-terminal end of the antigen). The plate was allowed to incubate 3 h at 25° C. in order to allow formation of the antibody-amyloid complex. Following this incubation and subsequent wash steps a selective anti-Aβ-antibody conjugate (biotinylated 3D6) was added and incubated for a minimum of 1 hour in order to allow formation of the antibody-Amyloid-antibody-complex. After incubation and appropriate wash steps, a Streptavidine-Peroxidase-Conjugate was added, followed 30 minutes later by an addition of 3,3′,5,5′-tetramethylbenzidine (TMB)/peroxide mixture, resulting in the conversion of the substrate into a coloured product. This reaction was stopped by the addition of sulfuric acid (0.9 N) and the colour intensity was measured by means of photometry with an ELISA-reader with a 450 nm filter.
as §6
as §4, with “12b,” for “12c,”, “IC50. The values reported in Table 12b are averaged IC50 values.” for “IC50.”

Structure (SMILES)	IC50 (Aβtotal [1])	IC50 (Aβ42 [2])	further results
COCc1c(-c2ccccc2)nc2c(Nc3ccc(-n4cnc(C)c4)c(F)c3)cccn12 [Compound 104]	7240 nM	29 nM	
COc1cc(Nc2cccn3cc(C(=O)OC(C)(C)C)nc23)ccc1-n1cnc(C)c1 [Compound 106]	4570 nM	34 nM	
COc1cc(Nc2cccn3cc(-c4cc(CN)ccc4C)nc23)ccc1-n1cnc(C)c1 [Compound 107]			IC50 (Aβtotal [1]; Homo sapiens): 2040 nM; IC50 (Aβ42 [2]; Homo sapiens): 48 nM
CCC(=O)NCc1ccc(C)c(-c2cn3cccc(Nc4ccc(-n5cnc(C)c5)c(OC)c4)c3n2)c1 [Compound 111]			IC50 (Aβtotal [1]; Homo sapiens): 5500 nM; IC50 (Aβ42 [2]; Homo sapiens): 65 nM
COc1c(-c2ccc(F)cc2)nc2c(Nc3ccc(-n4cnc(C)c4)c(F)c3)cccn12 [Compound 112]	> 10000 nM	107 nM	
COCCOCCOCC(=O)NCc1ccc(C)c(-c2cn3cccc(Nc4ccc(-n5cnc(C)c5)c(OC)c4)c3n2)c1 [Compound 114]			IC50 (Aβtotal [1]; Homo sapiens): 3630 nM; IC50 (Aβ42 [2]; Homo sapiens): 151 nM
Cc1cn(-c2ccc(Nc3cccn4cc(CC5CCOCC5)nc34)cc2F)cn1 [Compound 115]			IC50 (Aβtotal [1]; Homo sapiens): 8320 nM; IC50 (Aβ42 [2]; Homo sapiens): 257 nM
CCC(=O)c1cn2cccc(Nc3ccc(-n4cnc(C)c4)c(OC)c3)c2n1 [Compound 117]			IC50 (Aβtotal [1]; Homo sapiens): > 10000 nM; IC50 (Aβ42 [2]; Homo sapiens): 331 nM
COc1cc(Nc2cccn3cc(C(=O)N(C)C)nc23)ccc1-n1cnc(C)c1 [Compound 123]	> 10000 nM	5370 nM	
COc1nc(Nc2cccn3c(C)c(-c4ccccc4Cl)nc23)ccc1-n1cnc(C)c1 [Compound 139]	4270 nM	5 nM	
COCc1c(-c2ccccc2Cl)nc2c(Nc3ccc(-n4cnc(C)c4)c(OC)n3)cccn12 [Compound 140]	4070 nM	6 nM	
COc1nc(Nc2cccn3c(OC)c(-c4ccc(F)cc4)nc23)ccc1-n1cnc(C)c1 [Compound 141]	> 10000 nM	13 nM	
COc1nc(Nc2cc(F)cn3cc(CC(C)C)nc23)ccc1-n1cnc(C)c1 [Compound 142]	6610 nM	31 nM	
COc1nc(Nc2cccn3cc(C4CCOCC4)nc23)ccc1-n1cnc(C)c1 [Compound 143]	3390 nM	60 nM	
Cc1cn(-c2ccc(Nc3cc(F)cn4cc(-c5ccc(F)cc5C)nc34)cc2F)cn1 [Compound 148]	> 10000 nM	43 nM	
Cc1cn(-c2ccc(Nc3cc(Cl)cn4cc(C5CCOCC5)nc34)cc2F)cn1 [Compound 150]	> 10000 nM	200 nM	
CCc1cn2cc(C(F)(F)F)cc(Nc3ccc(-n4cnc(C)n4)c(OC)c3)c2n1 [Compound 153]			IC50 (Aβtotal [3]; Homo sapiens): > 3020 nM; IC50 (Aβ42 [4]; Homo sapiens): 1900 nM
C=Cc1cn2cc(C(F)(F)F)cc(Nc3ccc(-n4cnc(C)n4)c(OC)c3)c2n1 [Compound 154]			IC50 (Aβtotal [3]; Homo sapiens): > 3020 nM; IC50 (Aβ42 [4]; Homo sapiens): > 3020 nM
COc1cc(Nc2cc(C(F)(F)F)cn3cc(C(=O)O)nc23)ccc1-n1cnc(C)c1 [Compound 156]			IC50 (Aβtotal [3]): > 3020 nM; IC50 (Aβ42 [4]): > 3020 nM
COc1cc(Nc2ccnn3cc(-c4cc(F)ccc4C)nc23)ccc1-n1cnc(C)c1 [Compound 159]			IC50 (Aβtotal [1]; Homo sapiens): 4790 nM; IC50 (Aβ42 [2]; Homo sapiens): 55 nM
COc1cc(Nc2cc(C(F)(F)F)nn3cc(C)nc23)ccc1-n1cnc(C)c1 [Compound 164]			IC50 (Aβtotal [3]): > 10000 nM; IC50 (Aβ42 [4]): 178 nM
Cc1cn(-c2ccc(Nc3ccnn4cc(-c5cc(F)ccc5C)nc34)cc2F)cn1 [Compound 166]	> 10000 nM	251 nM	
Cc1cn(-c2ccc(Nc3cc(Cl)nn4cc(-c5cc(F)ccc5C)nc34)cc2F)cn1 [Compound 169]	7940 nM	417 nM	
C=C(C)c1cc(Nc2ccc(-n3cnc(C)c3)c(OC)n2)c2nc(-c3ccccc3Cl)cn2n1 [Compound 171]			IC50 (Aβtotal [1]; Homo sapiens): 8320 nM; IC50 (Aβ42 [2]; Homo sapiens): 537 nM
COc1cc(Nc2nc(Br)cn3cc(-c4ccc(F)cc4C)nc23)ccc1-n1cnc(C)n1 [Compound 177]			IC50 (Aβtotal [3]; Homo sapiens): > 3020 nM; IC50 (Aβ42 [4]; Homo sapiens): 234 nM

Now from value to compound, other results behind:

IC50 (Aβtotal [1])	IC50 (Aβ42 [2])	Structure (SMILES)	further results
> 10000 nM	46 nM	CCCCc1cn2cccc(Nc3ccc(-n4cnc(C)c4)c(OC)c3)c2n1 [Compound 69]	
> 10000 nM	129 nM	COc1cc(Nc2cccn3cc(C(O)C(F)(F)F)nc23)ccc1-n1cnc(C)c1 (centres unmarked) [Compound 110]	
> 10000 nM	1320 nM	COc1cc(Nc2cccn3cc(C(C)(C)O)nc23)ccc1-n1cnc(C)c1 [Compound 121]	
> 10000 nM	52 nM	COc1cc(Nc2cccn3c(CN(C)C)c(-c4ccccc4Cl)nc23)ccc1-n1cnc(C)n1 [Compound 126]	
> 10000 nM	62 nM	COc1cc(Nc2cccn3c(CN(C)C)c(-c4ccccc4)nc23)ccc1-n1cnc(C)n1 [Compound 128]	
8910 nM	71 nM	COc1cc(Nc2cc(C(F)(F)F)nn3cc(C4CCOCC4)nc23)ccc1-n1cnc(C)c1 [Compound 158]	
> 10000 nM	87 nM	COc1cc(Nc2cc(C(C)C)nn3cc(C)nc23)ccc1-n1cnc(C)c1 [Compound 160]	
> 10000 nM	132 nM	COc1ccccc1-c1cc(Nc2ccc(-n3cnc(C)c3)c(OC)c2)c2nc(C)cn2n1 [Compound 161]	
> 10000 nM	138 nM	COc1cc(Nc2cc(Cl)nn3cc(-c4cc(F)ccc4C)nc23)ccc1-n1cnc(C)n1 [Compound 162]	
> 10000 nM	178 nM	COc1cc(Nc2cc(Cl)nn3cc(C)nc23)ccc1-n1cnc(C)c1 [Compound 165]	
> 10000 nM	447 nM	COc1cc(Nc2cc(C3CCOCC3)nn3cc(C)nc23)ccc1-n1cnc(C)c1 [Compound 170]	
> 10000 nM	380 nM	COc1cc(Nc2nccn3cc(-c4ccc(F)cc4)nc23)ccc1-n1cnc(C)n1 [Compound 178]	
